Patent US11912693B2, “Compounds for modulating S1P1 activity and methods of using the same” (TREVENA, INC., priority 2017, dated 2024)

Experiments:
[1] = biological target: T1, human sphingosine-1-phosphate receptor 1 (S1P1) (Homo sapiens (Human), UniProt P21453); assay: β-Arrestin2 recruitment assay (PathHunter), S1P1 CHO-K1 cells; format: cell-based; conditions: for Emax: CHO-K1, efficacy (SPAN) normalized to fingolimod, read-out: hS1P1 B-arrestin2 SPAN; for hS1P1 B-arrestin2 pEC50: β-arrestin2 recruitment, S1P1 CHO-K1 cells
Outline: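 Enzyme-fragment complementation read-out: agonist-driven β-arrestin2 binding to ProLink-tagged human S1P1 in stable CHO-K1 cells restores β-galactosidase, measured 1 h at room temperature after a 60 min 37° C. compound incubation. Potency as pEC50, efficacy relative to fingolimod (SPAN).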
Target sequence in this assay (P21453 whole entry, looked up, the tested form may be a part): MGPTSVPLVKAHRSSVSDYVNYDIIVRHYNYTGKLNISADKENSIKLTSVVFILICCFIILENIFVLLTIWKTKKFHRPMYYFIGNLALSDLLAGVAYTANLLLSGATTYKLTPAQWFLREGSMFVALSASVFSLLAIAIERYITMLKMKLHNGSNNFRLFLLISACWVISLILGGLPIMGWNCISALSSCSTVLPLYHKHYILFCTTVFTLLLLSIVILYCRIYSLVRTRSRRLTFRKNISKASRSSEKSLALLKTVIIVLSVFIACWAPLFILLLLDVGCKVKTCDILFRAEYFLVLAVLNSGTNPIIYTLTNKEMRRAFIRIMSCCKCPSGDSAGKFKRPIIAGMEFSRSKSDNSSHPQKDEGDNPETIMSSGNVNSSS
Target sequence in this assay (P32121 whole entry partner, looked up, the tested form may be a part): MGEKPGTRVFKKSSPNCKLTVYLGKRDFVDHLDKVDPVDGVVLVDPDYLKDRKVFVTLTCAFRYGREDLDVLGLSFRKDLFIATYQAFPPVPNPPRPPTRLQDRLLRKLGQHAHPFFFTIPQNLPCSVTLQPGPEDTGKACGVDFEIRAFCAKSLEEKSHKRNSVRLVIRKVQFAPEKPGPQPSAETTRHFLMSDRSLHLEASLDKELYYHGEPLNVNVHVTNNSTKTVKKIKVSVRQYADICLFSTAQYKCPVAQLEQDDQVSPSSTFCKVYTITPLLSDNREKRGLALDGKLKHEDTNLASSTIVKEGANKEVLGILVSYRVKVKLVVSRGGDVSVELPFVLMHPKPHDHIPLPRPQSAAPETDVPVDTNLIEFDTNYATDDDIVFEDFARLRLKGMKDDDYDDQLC

[2] = biological target: T1, human sphingosine-1-phosphate receptor 1 (S1P1); assay: Inhibition of cAMP production (HTRF cAMP HiRange), S1P1 CHO-K1 cells; format: cell-based; conditions: for Emax: CHO-K1, efficacy (SPAN) normalized to fingolimod, read-out: hS1P1 cAMP SPAN; for hS1P1 cAMP pEC50: inhibition of cAMP production, S1P1 CHO-K1 cells
Outline: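 CHO-K1 cells stably co-expressing human S1P1 (C-terminal Prolink tag) and EA-β-arrestin2 were grown in AssayComplete Media 6 at 37° C. and 5% CO2, plated, and incubated overnight. Agonist-driven inhibition of intracellular cAMP was read by TR-FRET with the HTRF cAMP HiRange kit on a PheraStar reader. Potency is pEC50, and efficacy (SPAN) is normalized to fingolimod.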
Target sequence in this assay (P21453 whole entry, looked up, the tested form may be a part): as the sequence (P21453 whole entry, looked up, the tested form may be a part) above

Structure (SMILES)	Emax [1] [%]	hS1P1 B-arrestin2 pEC50 [1]	Emax [2] [%]	hS1P1 cAMP pEC50 [2]
Cc1ccccc1-c1cc(-c2ccc3c(c2)nnn3C(C)C)c[nH]1 [Compound 601, 5-[5-(2-methylphenyl)-1H-pyrrol-3-yl]-1-(propan-2-yl)-1H-1,2,3-benzotriazole]	–	>5	–	<6.5
CCC1(CC)CC(=O)c2cc(-c3nc(-c4sccc4OC)no3)ccc2O1 [Compound 604, 2,2-diethyl-6-(3-(3-methoxythiophen-2-yl)-1,2,4-oxadiazol-5-yl)chroman-4-one]	–	>5	–	>6.5
COc1ccncc1-c1nc(-c2ccc3c(c2)nnn3C(C)C)no1 [Compound 605, 3-(1-isopropyl-1H-benzo[d][1,2,3]triazol-5-yl)-5-(4-methoxypyridin-3-yl)-1,2,4-oxadiazole]	> 75	>5	> 75	>6.5
Cc1ccccc1-c1nc(-c2ccc3c(c2)nnn3C(C)(C)CO)no1 [Compound 609, 2-methyl-2-(5-(5-(o-tolyl)-1,2,4-oxadiazol-3-yl)-1H-benzo[d][1,2,3]triazol-1-yl)propan-1-ol]	–	<5	–	>6.5
COc1ccc(-c2nc(-c3ccc4c(c3)nnn4C(C)(C)CO)no2)c(C)c1 [Compound 610, 2-(5-(5-(4-methoxy-2-methylphenyl)-1,2,4-oxadiazol-3-yl)-1H-benzo[d][1,2,3]triazol-1-yl)-2-methylpropan-1-ol]	–	<5	–	<6.5
COc1cccnc1-c1nc(-c2ccc3c(c2)nnn3C(C)C)no1 [Compound 612, 3-(1-isopropyl-1H-benzo[d][1,2,3]triazol-5-yl)-5-(3-methoxypyridin-2-yl)-1,2,4-oxadiazole]	> 75	>5	< 75	>6.5
CCC1(CC)CC(=O)c2cc(-c3nc(-c4cccnn4)no3)ccc2O1 [Compound 621, 2,2-diethyl-6-(3-(pyridazin-3-yl)-1,2,4-oxadiazol-5-yl)chroman-4-one]	–	<5	–	<6.5
COc1ccccc1-c1nc(-c2ccc3c(c2)nnn3C(C)(C)CO)no1 [Compound 623, 2-(5-(5-(2-methoxyphenyl)-1,2,4-oxadiazol-3-yl)-1H-benzo[d][1,2,3]triazol-1-yl)-2-methylpropan-1-ol]	> 75	<5	> 75	<6.5
CCc1ccccc1-c1nc(-c2ccc3c(c2)nnn3C(C)(C)CO)no1 [Compound 624, 2-(5-(5-(2-ethylphenyl)-1,2,4-oxadiazol-3-yl)-1H-benzo[d][1,2,3]triazol-1-yl)-2-methylpropan-1-ol]	> 75	<5	< 75	<6.5
Cc1ccncc1-c1nc(-c2ccc3c(c2)nnn3C(C)(C)CO)no1 [Compound 625, 2-methyl-2-(5-(5-(4-methylpyridin-3-yl)-1,2,4-oxadiazol-3-yl)-1H-benzo[d][1,2,3]triazol-1-yl)propan-1-ol]	< 75	<5	< 75	<6.5
CCCC1CC(=O)c2ccc(-c3nc(-c4cccnc4)no3)cc2O1 (stereo not drawn) [Compound 630, 2-propyl-7-[3-(pyridin-3-yl)-1,2,4-oxadiazol-5-yl]-3,4-dihydro-2H-1-benzopyran-4-one]	–	<5	–	<6.5
CCCCC1CC(=O)c2ccc(-c3nc(-c4cccnc4)no3)cc2O1 (stereo not drawn) [Compound 633, 2-butyl-7-[3-(pyridin-3-yl)-1,2,4-oxadiazol-5-yl]-3,4-dihydro-2H-1-benzopyran-4-one]	–	<5	–	<6.5
CC(C)Nc1ccc(-c2nnc(-c3ccc4c(c3)C(=O)NCC4)o2)cc1C#N [Compound 638, 5-[5-(1-oxo-1,2,3,4-tetrahydroisoquinolin-7-yl)-1,3,4-oxadiazol-2-yl]-2-[(propan-2-yl)amino]benzonitrile]	–	<5	–	>6.5

Second part, the compound after the results:

Emax [1] [%]	hS1P1 B-arrestin2 pEC50 [1]	Emax [2] [%]	hS1P1 cAMP pEC50 [2]	Structure (SMILES)
> 75	>5	< 75	>6.5	CNc1ccccc1-c1nc(-c2ccc3c(c2)nnn3C(C)C)no1 [Compound 599, N-methyl-2-{3-[1-(propan-2-yl)-1H-1,2,3-benzotriazol-5-yl]-1,2,4-oxadiazol-5-yl}aniline]
–	<5	–	<6.5	CC(C)n1nnc2cc(-c3noc(-c4ncccc4O)n3)ccc21 [Compound 602, 2-{3-[1-(propan-2-yl)-1H-1,2,3-benzotriazol-5-yl]-1,2,4-oxadiazol-5-yl}pyridin-3-ol]
–	>5	–	>6.5	CCC1(CC)CC(=O)c2cc(-c3nc(-c4cncc(S(N)(=O)=O)c4)no3)ccc2O1 [Compound 603, 5-(5-(2,2-diethyl-4-oxochroman-6-yl)-1,2,4-oxadiazol-3-yl)pyridine-3-sulfonamide]
< 75	>5	< 75	>6.5	Cc1ccsc1-c1nc(-c2ccc3c(c2)nnn3C(C)(C)CO)no1 [Compound 611, 2-methyl-2-(5-(5-(3-methylthiophen-2-yl)-1,2,4-oxadiazol-3-yl)-1H-benzo[d][1,2,3]triazol-1-yl)propan-1-ol]
–	<5	–	<6.5	Cc1ccncc1-c1noc(-c2ccc3c(c2)NC(=O)CN3)n1 [Compound 613, 7-[3-(4-methylpyridin-3-yl)-1,2,4-oxadiazol-5-yl]-1,2,3,4-tetrahydroquinoxalin-2-one]
–	<5	–	<6.5	COc1ccccc1-c1noc(-c2ccc3c(c2)NC(=O)CN3)n1 [Compound 614, 7-[3-(2-methoxyphenyl)-1,2,4-oxadiazol-5-yl]-1,2,3,4-tetrahydroquinoxalin-2-one]
–	<5	–	<6.5	CCC1(CC)CC(=O)c2cc(-c3nc(-c4cnccn4)no3)ccc2O1 [Compound 617, 2,2-diethyl-6-(3-(pyrazin-2-yl)-1,2,4-oxadiazol-5-yl)chroman-4-one]
–	>5	–	>6.5	COc1ncccc1-c1noc(-c2ccc3c(c2)nnn3C(C)C)n1 [Compound 619, 5-(1-isopropyl-1H-benzo[d][1,2,3]triazol-5-yl)-3-(2-methoxypyridin-3-yl)-1,2,4-oxadiazole]
–	>5	–	>6.5	CCC1(CC)CC(=O)c2cc(-c3nc(-c4cncnc4)no3)ccc2O1 [Compound 620, 2,2-diethyl-6-(3-(pyrimidin-5-yl)-1,2,4-oxadiazol-5-yl)chroman-4-one]
–	<5	–	>6.5	CCC1(CC)CC(=O)c2cc(-c3nc(-c4ccc5ncoc5c4)no3)ccc2O1 [Compound 622, 6-(3-(benzo[d]oxazol-6-yl)-1,2,4-oxadiazol-5-yl)-2,2-diethylchroman-4-one]
–	<5	–	<6.5	CC(C)(CO)n1nnc2cc(-c3noc(-c4ccncc4C(F)(F)F)n3)ccc21 [Compound 626, 2-methyl-2-(5-(5-(3-(trifluoromethyl)pyridin-4-yl)-1,2,4-oxadiazol-3-yl)-1H-benzo[d][1,2,3]triazol-1-yl)propan-1-ol]
> 75	<5	> 75	<6.5	COc1cccnc1-c1noc(-c2ccc3c(c2)nnn3C(C)C)n1 [Compound 627, 5-(1-isopropyl-1H-benzo[d][1,2,3]triazol-5-yl)-3-(3-methoxypyridin-2-yl)-1,2,4-oxadiazole]
–	>5	–	>6.5	CC(C)Nc1ccc(-c2ncc(-c3ccc4[nH]c(=O)[nH]c4c3)cn2)cc1C#N [Compound 628, 2-(isopropylamino)-5-(5-(2-oxo-2,3-dihydro-1H-benzo[d]imidazol-5-yl)pyrimidin-2-yl)benzonitrile]
–	<5	–	<6.5	O=C1CNc2ccc(-c3nc(-c4cccnc4)no3)cc2N1 [Compound 629, 7-[3-(pyridin-3-yl)-1,2,4-oxadiazol-5-yl]-1,2,3,4-tetrahydroquinoxalin-2-one]
–	<5	–	<6.5	Cn1cnc2ccc(-c3nnc(-c4ccc(NC(C)(C)CO)c(C#N)c4)o3)cc21 [Compound 634, 2-[(1-hydroxy-2-methylpropan-2-yl)amino]-5-[5-(1-methyl-1H-1,3-benzodiazol-6-yl)-1,3,4-oxadiazol-2-yl]benzonitrile]
–	>5	–	>6.5	Cn1cnc2ccc(-c3nnc(-c4ccc(NCC(F)(F)CO)c(C#N)c4)o3)cc21 [Compound 635, 2-[(2,2-difluoro-3-hydroxypropyl)amino]-5-[5-(1-methyl-1H-1,3-benzodiazol-6-yl)-1,3,4-oxadiazol-2-yl]benzonitrile]
–	<5	–	<6.5	CCC1(CC)CC(=O)c2cc(-c3nc(-c4ccncn4)no3)ccc2O1 [Compound 639, 2,2-diethyl-6-(3-(pyrimidin-4-yl)-1,2,4-oxadiazol-5-yl)chroman-4-one]
–	<5	–	<6.5	CCC1(CC)CC(=O)c2cc(-c3nc(-c4ncccn4)no3)ccc2O1 [Compound 640, 2,2-diethyl-6-(3-(pyrimidin-2-yl)-1,2,4-oxadiazol-5-yl)chroman-4-one]
